Assay results as given in article PMC12300041, “Tricyclic Isatin Derivatives as Anti-Inflammatory Compounds with High Kinase Binding Affinity” (Molecules, 2025).

Columns and labels:
[1] = system: proinflammatory cytokine production; experiment: Multiplex human cytokine ELISA, LPS-stimulated MonoMac-6 cells; assay type: cell-based; details: 10 μM compound, 24 h, versus DMSO-treated control
Source text: A multiplex human cytokine ELISA kit from Anogen (Mississauga, ON, Canada) was used to evaluate various cytokines (IL-1α, IL-1β, IL-6, GM-CSF, MCP-1, IFN-γ, and TNF) in the supernatants of MonoMac-6 cells.

THP-1 Cells = experiment: Cytotoxicity, CellTiter-Glo; assay type: cell-based, human; details: 24 h incubation; N.T.: no cytotoxicity at concentrations up to 50 µM
Description: (§1) Cytotoxicity was analyzed with a CellTiter-Glo Luminescent Cell Viability Assay Kit from Promega (Madison, WI, USA) according to the manufacturer’s protocol. THP-1Blue cells were treated with varying concentrations of the test compounds (up to 50 µM) and cultivated for 24 h. After treatment, the cells were allowed to equilibrate to room temperature for 30 min, the substrate was added, and the samples were analyzed with a Fluoroscan Ascent FL (Thermo Fisher Scientific, Waltham, MA, USA).

[2] = Cytotoxicity, CellTiter-Glo; assay type: cell-based, human; details: human, THP-1Blue cells; 24 h incubation; N.T.: no cytotoxicity at concentrations up to 50 µM
Description: as §1

[3] = Cytotoxicity, CellTiter-Glo; assay type: cell-based, human; details: human, MonoMac-6 cells; 24 h incubation; N.T.: no cytotoxicity at concentrations up to 50 µM
MonoMac-6 Cells = experiment: Cytotoxicity, CellTiter-Glo; assay type: cell-based, human; details: 24 h incubation; N.T.: no cytotoxicity at concentrations up to 50 µM
DAPK3 = target: T1, DAPK3 (Homo sapiens, UniProt O43293); experiment: KINOMEscan; assay type: binding; details: DAPK3; N.B.: no binding at concentrations up to 30 µM
T1 construct: purchased Eurofins Pharma Discovery (KINOMEscan)
T1 sequence (O43293 whole entry): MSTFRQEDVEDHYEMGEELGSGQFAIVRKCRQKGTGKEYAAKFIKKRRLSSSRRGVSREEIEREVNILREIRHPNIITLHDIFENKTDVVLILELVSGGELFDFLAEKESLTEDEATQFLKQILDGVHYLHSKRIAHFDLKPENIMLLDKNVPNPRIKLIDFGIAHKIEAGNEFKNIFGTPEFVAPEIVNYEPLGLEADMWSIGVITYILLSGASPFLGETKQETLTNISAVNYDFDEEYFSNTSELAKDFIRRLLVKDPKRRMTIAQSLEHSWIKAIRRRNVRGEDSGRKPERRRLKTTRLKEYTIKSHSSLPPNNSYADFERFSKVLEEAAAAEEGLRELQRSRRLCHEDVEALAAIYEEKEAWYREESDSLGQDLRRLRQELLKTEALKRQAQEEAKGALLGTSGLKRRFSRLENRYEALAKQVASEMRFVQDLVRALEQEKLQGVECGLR
Description: (§2) Kinase profiling was performed by KINOMEscan (Eurofins Pharma Discovery, San Diego, CA, USA), using a panel of 423 protein kinases, as described previously. Compounds were submitted for dissociation constant (Kd) determination toward several target kinases using KINOMEscan. […] Binding reactions were performed at room temperature for 1 h, and the fraction of kinase not bound to the test compound was determined by capture with an immobilized affinity ligand and quantified by quantitative polymerase chain reaction. The primary screening at fixed concentrations of the compound was performed in duplicate. For dissociation constant Kd determination, a 12-point half-log dilution series (a maximum concentration of 33 μM) was used.

HASPIN = target: T2, HASPIN (Homo sapiens, UniProt Q8TF76); experiment: KINOMEscan; assay type: binding; details: Haspin; N.B.: no binding at concentrations up to 30 µM
T2 construct: purchased Eurofins Pharma Discovery (KINOMEscan)
T2 sequence (Q8TF76 1-798): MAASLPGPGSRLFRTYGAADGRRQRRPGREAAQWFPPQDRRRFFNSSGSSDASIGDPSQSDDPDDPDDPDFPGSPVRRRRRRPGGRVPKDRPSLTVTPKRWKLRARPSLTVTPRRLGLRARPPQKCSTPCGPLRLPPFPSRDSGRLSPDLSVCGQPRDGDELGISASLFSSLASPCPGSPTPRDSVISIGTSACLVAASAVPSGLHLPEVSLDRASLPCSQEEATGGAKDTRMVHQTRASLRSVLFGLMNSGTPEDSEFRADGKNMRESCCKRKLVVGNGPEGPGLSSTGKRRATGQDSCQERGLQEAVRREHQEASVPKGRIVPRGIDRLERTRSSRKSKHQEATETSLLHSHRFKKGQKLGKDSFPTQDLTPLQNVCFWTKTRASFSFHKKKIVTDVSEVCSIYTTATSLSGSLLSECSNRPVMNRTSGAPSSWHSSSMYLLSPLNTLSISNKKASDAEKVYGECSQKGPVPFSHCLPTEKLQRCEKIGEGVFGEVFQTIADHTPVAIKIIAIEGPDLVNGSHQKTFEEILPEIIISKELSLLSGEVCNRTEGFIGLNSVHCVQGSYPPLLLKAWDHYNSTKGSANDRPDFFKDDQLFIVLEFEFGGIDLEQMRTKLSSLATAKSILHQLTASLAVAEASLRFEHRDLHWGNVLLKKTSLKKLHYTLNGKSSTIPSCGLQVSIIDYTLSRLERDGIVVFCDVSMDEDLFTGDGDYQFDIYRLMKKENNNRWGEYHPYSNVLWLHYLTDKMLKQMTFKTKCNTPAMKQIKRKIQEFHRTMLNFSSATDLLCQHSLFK
Description: as §2

DYRK1B = target: T3, DYRK1B (Homo sapiens, UniProt Q9Y463); experiment: KINOMEscan; assay type: binding; details: DYRK1B; N.B.: no binding at concentrations up to 30 µM
T3 construct: purchased Eurofins Pharma Discovery (KINOMEscan)
T3 sequence (Q9Y463 whole entry): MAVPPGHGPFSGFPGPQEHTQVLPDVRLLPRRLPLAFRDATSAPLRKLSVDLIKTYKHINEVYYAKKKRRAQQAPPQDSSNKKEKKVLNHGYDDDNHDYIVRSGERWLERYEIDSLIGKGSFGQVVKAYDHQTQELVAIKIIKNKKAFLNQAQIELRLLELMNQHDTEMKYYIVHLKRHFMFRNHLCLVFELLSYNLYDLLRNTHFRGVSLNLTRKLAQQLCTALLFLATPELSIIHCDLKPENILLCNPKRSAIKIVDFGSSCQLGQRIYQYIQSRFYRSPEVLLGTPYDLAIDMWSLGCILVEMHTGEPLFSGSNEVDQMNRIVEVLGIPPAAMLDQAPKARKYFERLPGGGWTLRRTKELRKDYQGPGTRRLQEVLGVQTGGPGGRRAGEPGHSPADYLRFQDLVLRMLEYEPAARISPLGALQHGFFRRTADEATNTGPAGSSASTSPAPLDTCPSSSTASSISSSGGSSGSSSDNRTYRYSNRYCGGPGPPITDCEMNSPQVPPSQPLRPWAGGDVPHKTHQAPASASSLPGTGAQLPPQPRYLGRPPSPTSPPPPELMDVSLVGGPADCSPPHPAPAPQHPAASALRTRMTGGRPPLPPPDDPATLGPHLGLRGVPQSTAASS
Description: as §2

HIPK3 = target: T4, HIPK3 (Homo sapiens, UniProt Q9H422); experiment: KINOMEscan; assay type: binding; details: HIPK3; N.B.: no binding at concentrations up to 30 µM
T4 construct: purchased Eurofins Pharma Discovery (KINOMEscan)
Description: as §2

DYRK1A = target: T5, DYRK1A (Homo sapiens, UniProt Q13627); experiment: KINOMEscan; assay type: binding; details: DYRK1A; N.B.: no binding at concentrations up to 30 µM
T5 construct: purchased Eurofins Pharma Discovery (KINOMEscan)
Description: as §2

IRAK1 = target: T6, IRAK1 (Homo sapiens, UniProt P51617); experiment: KINOMEscan; assay type: binding; details: IRAK1; N.B.: no binding at concentrations up to 30 µM
T6 construct: purchased Eurofins Pharma Discovery (KINOMEscan)
T6 sequence (P51617 whole entry): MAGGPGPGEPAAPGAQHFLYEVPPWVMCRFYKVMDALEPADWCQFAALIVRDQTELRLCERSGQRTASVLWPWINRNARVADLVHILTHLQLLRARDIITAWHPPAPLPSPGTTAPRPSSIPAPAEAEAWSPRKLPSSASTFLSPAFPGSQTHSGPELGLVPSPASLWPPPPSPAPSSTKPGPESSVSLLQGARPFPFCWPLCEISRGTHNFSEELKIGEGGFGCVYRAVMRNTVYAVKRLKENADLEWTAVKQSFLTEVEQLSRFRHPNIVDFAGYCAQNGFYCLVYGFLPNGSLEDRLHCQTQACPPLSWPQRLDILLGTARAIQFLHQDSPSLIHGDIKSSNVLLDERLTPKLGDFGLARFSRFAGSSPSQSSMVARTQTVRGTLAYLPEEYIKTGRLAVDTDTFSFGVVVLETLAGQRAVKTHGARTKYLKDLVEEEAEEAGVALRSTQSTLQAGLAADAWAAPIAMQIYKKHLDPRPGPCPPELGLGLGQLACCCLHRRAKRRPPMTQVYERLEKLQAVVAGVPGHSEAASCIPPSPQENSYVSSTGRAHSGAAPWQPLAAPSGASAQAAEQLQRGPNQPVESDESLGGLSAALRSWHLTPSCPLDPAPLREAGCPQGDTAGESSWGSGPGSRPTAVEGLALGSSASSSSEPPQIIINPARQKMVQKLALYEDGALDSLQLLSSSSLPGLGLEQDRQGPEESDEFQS
Description: as §2

NEK10 = target: T7, NEK10 (Homo sapiens, UniProt Q6ZWH5); experiment: KINOMEscan; assay type: binding; details: NEK10; N.B.: no binding at concentrations up to 30 µM
T7 construct: purchased Eurofins Pharma Discovery (KINOMEscan)
T7 sequence (Q6ZWH5 1-1172): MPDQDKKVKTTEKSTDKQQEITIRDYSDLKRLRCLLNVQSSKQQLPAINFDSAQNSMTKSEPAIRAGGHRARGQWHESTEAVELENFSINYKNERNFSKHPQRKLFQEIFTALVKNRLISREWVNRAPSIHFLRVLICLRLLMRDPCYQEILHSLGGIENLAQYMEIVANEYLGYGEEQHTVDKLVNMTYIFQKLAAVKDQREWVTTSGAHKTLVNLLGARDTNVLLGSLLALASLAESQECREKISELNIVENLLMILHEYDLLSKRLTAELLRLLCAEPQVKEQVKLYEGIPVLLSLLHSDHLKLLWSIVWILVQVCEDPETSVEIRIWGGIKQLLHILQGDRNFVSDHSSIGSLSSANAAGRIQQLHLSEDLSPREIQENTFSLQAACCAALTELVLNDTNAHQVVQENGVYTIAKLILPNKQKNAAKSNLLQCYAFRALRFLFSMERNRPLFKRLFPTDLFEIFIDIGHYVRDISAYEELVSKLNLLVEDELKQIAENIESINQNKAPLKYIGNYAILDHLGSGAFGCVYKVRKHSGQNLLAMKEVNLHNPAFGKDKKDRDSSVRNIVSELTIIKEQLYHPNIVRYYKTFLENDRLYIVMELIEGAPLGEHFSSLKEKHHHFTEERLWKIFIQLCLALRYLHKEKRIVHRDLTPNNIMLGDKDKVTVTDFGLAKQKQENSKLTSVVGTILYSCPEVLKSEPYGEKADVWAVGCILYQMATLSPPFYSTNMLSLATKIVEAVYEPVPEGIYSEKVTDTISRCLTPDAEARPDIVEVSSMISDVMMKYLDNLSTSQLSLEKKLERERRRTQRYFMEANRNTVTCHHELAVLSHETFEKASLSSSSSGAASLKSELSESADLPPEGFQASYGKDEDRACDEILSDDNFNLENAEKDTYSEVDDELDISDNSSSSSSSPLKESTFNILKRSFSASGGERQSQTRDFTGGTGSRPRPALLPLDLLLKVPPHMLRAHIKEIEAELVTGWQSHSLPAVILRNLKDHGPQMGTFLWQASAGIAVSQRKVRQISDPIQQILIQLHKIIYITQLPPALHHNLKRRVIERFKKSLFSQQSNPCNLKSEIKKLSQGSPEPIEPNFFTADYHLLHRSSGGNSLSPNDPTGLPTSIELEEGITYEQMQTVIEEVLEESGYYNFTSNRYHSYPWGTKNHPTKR
Description: as §2

PIM1 = target: T8, PIM1 (Homo sapiens, UniProt P11309); experiment: KINOMEscan; assay type: binding; details: PIM1; N.B.: no binding at concentrations up to 30 µM
T8 construct: purchased Eurofins Pharma Discovery (KINOMEscan)
Description: as §2

HIPK2 = target: T9, HIPK2 (Homo sapiens, UniProt Q9H2X6); experiment: KINOMEscan; assay type: binding; details: HIPK2; N.B.: no binding at concentrations up to 30 µM
T9 construct: purchased Eurofins Pharma Discovery (KINOMEscan)
Description: as §2

HIPK1 = target: T10, HIPK1 (Homo sapiens, UniProt Q86Z02); experiment: KINOMEscan; assay type: binding; details: HIPK1; N.B.: no binding at concentrations up to 30 µM
T10 construct: purchased Eurofins Pharma Discovery (KINOMEscan)
T10 sequence (Q86Z02 whole entry): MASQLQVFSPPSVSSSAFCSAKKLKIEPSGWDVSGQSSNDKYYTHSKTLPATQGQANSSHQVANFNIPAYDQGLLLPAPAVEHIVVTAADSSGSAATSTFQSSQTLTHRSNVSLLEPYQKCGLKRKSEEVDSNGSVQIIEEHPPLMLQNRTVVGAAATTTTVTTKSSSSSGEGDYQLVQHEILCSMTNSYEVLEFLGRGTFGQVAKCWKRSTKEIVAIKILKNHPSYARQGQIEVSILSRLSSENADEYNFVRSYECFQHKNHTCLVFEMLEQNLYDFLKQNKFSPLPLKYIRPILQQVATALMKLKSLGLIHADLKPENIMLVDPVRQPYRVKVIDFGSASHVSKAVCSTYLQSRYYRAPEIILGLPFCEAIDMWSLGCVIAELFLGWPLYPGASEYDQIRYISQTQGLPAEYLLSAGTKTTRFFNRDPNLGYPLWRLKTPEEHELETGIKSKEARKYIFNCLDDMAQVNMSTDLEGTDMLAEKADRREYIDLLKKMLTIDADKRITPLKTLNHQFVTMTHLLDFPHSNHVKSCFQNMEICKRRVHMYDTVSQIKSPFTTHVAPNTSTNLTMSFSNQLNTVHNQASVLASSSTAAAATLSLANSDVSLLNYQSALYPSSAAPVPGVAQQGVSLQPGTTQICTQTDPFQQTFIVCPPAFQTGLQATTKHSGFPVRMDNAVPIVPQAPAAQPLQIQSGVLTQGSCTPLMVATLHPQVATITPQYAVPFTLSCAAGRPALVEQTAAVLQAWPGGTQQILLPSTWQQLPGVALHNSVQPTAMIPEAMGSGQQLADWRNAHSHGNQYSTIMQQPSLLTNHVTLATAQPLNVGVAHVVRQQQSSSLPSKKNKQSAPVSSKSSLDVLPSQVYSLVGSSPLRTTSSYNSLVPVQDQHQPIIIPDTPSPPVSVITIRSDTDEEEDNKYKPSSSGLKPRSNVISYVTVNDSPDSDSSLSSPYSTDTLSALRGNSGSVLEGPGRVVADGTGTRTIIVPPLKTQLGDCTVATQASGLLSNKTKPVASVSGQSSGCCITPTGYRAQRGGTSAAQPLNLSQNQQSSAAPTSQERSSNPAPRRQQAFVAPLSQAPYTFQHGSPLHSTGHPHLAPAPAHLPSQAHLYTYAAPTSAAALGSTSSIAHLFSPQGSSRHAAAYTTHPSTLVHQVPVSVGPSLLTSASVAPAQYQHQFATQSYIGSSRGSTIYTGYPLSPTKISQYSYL
Description: as §2

DAPK1 = target: T11, DAPK1 (Homo sapiens, UniProt P53355); experiment: KINOMEscan; assay type: binding; details: DAPK1; N.B.: no binding at concentrations up to 30 µM
T11 construct: purchased Eurofins Pharma Discovery (KINOMEscan)
T11 sequence (P53355 whole entry): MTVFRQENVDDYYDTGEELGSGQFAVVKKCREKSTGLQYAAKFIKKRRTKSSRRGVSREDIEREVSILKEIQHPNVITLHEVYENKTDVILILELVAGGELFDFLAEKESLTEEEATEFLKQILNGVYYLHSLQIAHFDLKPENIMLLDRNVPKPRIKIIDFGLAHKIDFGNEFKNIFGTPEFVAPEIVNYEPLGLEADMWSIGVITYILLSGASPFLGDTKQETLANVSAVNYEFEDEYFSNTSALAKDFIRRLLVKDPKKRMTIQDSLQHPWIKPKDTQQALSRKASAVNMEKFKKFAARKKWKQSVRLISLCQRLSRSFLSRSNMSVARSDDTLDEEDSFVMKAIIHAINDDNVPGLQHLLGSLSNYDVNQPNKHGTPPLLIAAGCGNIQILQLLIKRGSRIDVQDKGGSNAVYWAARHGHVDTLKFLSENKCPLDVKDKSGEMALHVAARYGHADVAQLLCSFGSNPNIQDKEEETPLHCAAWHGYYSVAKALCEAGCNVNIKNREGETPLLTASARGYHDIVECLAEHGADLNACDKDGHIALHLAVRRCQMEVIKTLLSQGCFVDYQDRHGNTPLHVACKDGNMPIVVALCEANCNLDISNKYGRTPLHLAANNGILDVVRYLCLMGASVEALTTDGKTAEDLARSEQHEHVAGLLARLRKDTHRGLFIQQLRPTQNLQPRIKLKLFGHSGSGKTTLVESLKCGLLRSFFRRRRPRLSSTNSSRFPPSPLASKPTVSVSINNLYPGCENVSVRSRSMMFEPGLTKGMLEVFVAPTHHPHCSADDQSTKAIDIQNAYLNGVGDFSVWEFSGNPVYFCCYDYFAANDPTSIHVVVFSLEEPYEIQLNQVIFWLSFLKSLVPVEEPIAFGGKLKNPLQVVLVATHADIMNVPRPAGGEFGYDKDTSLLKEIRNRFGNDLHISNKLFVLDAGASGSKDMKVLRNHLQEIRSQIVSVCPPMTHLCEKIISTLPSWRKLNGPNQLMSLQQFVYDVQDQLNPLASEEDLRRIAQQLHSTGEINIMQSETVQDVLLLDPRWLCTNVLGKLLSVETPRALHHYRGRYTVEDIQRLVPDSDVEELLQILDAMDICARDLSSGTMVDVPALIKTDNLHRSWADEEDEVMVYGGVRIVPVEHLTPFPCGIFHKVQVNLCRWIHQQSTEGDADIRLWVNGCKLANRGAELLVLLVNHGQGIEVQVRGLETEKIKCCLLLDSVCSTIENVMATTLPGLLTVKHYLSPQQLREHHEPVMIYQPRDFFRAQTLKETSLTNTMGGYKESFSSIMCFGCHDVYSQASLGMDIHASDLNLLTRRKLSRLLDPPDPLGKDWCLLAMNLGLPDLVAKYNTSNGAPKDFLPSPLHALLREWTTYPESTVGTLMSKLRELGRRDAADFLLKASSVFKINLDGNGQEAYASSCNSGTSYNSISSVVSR
Description: as §2

DAPK2 = target: T12, DAPK2 (Homo sapiens, UniProt Q9UIK4); experiment: KINOMEscan; assay type: binding; details: DAPK2; N.B.: no binding at concentrations up to 30 µM
T12 construct: purchased Eurofins Pharma Discovery (KINOMEscan)
T12 sequence (Q9UIK4 whole entry): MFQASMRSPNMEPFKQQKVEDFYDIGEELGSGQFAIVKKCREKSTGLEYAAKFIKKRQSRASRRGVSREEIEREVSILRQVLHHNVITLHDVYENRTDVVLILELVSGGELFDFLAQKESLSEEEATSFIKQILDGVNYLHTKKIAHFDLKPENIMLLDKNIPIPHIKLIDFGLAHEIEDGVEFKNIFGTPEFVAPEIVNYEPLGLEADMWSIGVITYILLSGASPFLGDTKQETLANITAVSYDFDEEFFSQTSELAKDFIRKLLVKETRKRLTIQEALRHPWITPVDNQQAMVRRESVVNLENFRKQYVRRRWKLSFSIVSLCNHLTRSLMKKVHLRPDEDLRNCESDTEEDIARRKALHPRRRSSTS
Description: as §2

kinases = experiment: Published kinase profile of SP600125, selectivity score; assay type: binding; details: from published kinase profile; 39/119

In the case of `CON=C1C(=O)Nc2c1cc([N+](=O)[O-])c1c2CCCC1` [Compound 5e, 3-(Methoxyimino)-5-nitro-1,3,6,7,8,9-hexahydro-2H-benzo[g]indol-2-one], the “inhibition of secretion of IL-1α, IL-1β, IL-6, TNF and MCP-1” value [1] is reported as “ineffective”.

With `CCN1CCc2c(-c3ccccc3)cc3c(c2C1)NC(=O)C3=NO` [NS-383, 8-ethyl-6,7,8,9-tetrahydro-5-phenyl-1H-pyrrolo[3,2-h]isoquinolin-2,3-dione-3-oxime, reference compound] the “Cytotoxicity (THP-1 Cells) IC50 (µM)” value (THP-1 Cells) was “cytotoxic”, the IC50 at 24 h [2] was 19.2 ± 2.1 µM and the IC50 at 24 h [3] was 21.2 ± 2.4 µM. The “Cytotoxicity (MonoMac-6 Cells) IC50 (µM)” value (MonoMac-6 Cells) was “cytotoxic”, the “Kd (µM)” value (DAPK3) was “N.B” and the “Kd (µM)” value (HASPIN) was “N.B”. The “Kd (µM)” value (DYRK1B) was “N.B”, the “Kd (µM)” value (HIPK3) was “N.B” and the “Kd (µM)” value (DYRK1A) was “N.B”. The “Kd (µM)” value (IRAK1) was “N.B”, the “Kd (µM)” value (NEK10) was “N.B” and the Kd (PIM1) was 14 ± 0.7 µM. The “Kd (µM)” value (HIPK2) was “N.B”, the “Kd (µM)” value (HIPK1) was “N.B” and the “Kd (µM)” value (DAPK1) was “N.B”. The “Kd (µM)” value (DAPK2) was “N.B”.

With `CON=C1C(=O)Nc2c1ccc1c2CCCC1` [Compound 5b, 3-(Methoxyimino)-1,3,6,7,8,9-hexahydro-2H-benzo[g]indol-2-one] the “inhibition of secretion of IL-1α, IL-1β, IL-6, TNF and MCP-1” value [1] was “ineffective”.

In the case of `Oc1c2ccccc2c2c3c(cccc13)N=N2` [SP600125], the “selectivity score, S(10)” value (kinases) is reported as 0.328.
